This is an account of results in patent US6528043B2, “Composition containing sapogenin” (L'Oreal, priority 1999, dated 2003).

This data set is described as follows: Maximum amount of diosgenin which can be dissolved at 50° C. (procedure repeated, varying the amount of diosgenin). Type of data set: physicochemical. As to the method: The above compositions were prepared in the following way. 100 mg of diosgenin were weighed out and placed in a hermetic pillbox, to which 4.9 g of the solvent(s) were added with magnetic stirring at 25° C. for not more than one hour. In the event that the diosgenin was not dissolved after one hour, the suspension was heated with stirring to 50° C. on a waterbath and then, in the absence of dissolution of the diosgenin after one hour at this temperature, the temperature of the suspension was raised to 70° C.
The above procedure was repeated, varying the amount of diosgenin placed in solution. It was thus shown that the maximum amount of diosgenin which can be dissolved at 50° C. in the mixture of solvents was 2%, whereas it was only 1% in each of the solvents taken individually.
The above procedure was repeated, varying the amount of diosgenin placed in solution. It was thus shown that the maximum amount of diosgenin which can be dissolved at 50° C. in the mixture of solvents was 4%, whereas it was only 1% in each of the solvents taken individually.
The above procedure was repeated, varying the amount of diosgenin placed in solution. It was thus shown that the maximum amount of diosgenin which can be dissolved at 50° C. in the mixture of solvents was 3%, whereas it was only 1% in each of the solvents taken individually.
The amount of diosgenin placed in solution was then varied. It was thus shown that the maximum amount of diosgenin which can be dissolved at 50° C. in the mixture of solvents was 3%, whereas it was only 1% in the ester and 2% in the UV screening agent.

Consider `C[C@@H]1CC[C@@]2(OC1)O[C@H]1C[C@H]3[C@@H]4CC=C5C[C@@H](O)CC[C@]5(C)[C@H]4CC[C@]3(C)[C@H]1[C@@H]2C` [diosgenin, spirost-5-en-3-beta-ol], for which the “maximum amount of diosgenin which can be dissolved” value runs as follows: (50/50 mixture of isononyl isononanoate and hexyldecanol) 3%; (50/50 mixture of isononyl isononanoate and octyl methoxycinnamate) 3%; (50/50 mixture of isopropyl myristate and hexyldecanol) 4%; (50/50 mixture of triglyceryl triisostearate and hexyldecanol) 2%; (hexyldecanol taken individually) 1%; (isononyl isononanoate (ester) alone) 1%. For the same compound, the “maximum amount of diosgenin which can be dissolved” value was 1% (isopropyl myristate taken individually), 2% (octyl methoxycinnamate (UV screening agent) alone) and 1% (triglyceryl triisostearate taken individually).
